Reference: ChEMBL document CHEMBL4425153, “Matched and mixed cap derivatives in the tetracyclic indole class of HCV NS5A inhibitors” (Bioorg Med Chem Lett, 2016)
Where a chain is given by its changes, count along the chain named.

Legend:
[1] = tested on: T1, Nonstructural protein 5A (Hepatitis C virus), Q5L478 [Y93H]; test: Inhibition of HCV genotype 1a NS5A Y93H mutant assessed as reduction in viral RNA level by cell based real time PCR method; conditions: Hepatitis C virus subtype 1a
T1 sequence (whole entry): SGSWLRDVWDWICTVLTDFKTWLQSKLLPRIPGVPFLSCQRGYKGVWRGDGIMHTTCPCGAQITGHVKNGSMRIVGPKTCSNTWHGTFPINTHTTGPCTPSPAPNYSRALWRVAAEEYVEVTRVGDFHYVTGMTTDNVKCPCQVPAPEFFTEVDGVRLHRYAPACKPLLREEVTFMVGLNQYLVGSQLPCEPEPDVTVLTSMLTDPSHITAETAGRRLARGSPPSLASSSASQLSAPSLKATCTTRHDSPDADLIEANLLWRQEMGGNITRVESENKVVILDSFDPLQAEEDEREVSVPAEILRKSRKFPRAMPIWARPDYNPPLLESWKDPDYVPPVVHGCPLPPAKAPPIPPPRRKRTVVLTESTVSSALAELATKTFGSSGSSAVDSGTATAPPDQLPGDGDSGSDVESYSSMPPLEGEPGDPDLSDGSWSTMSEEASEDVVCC

[2] = biological target: T2, Nonstructural protein 5A (Hepatitis C virus) (UniProt Q5L478); test: Inhibition of wild type HCV genotype 1a NS5A assessed as reduction in viral RNA level by cell based real time PCR method; conditions: Hepatitis C virus subtype 1a
T2 sequence (whole entry): T1 sequence (whole entry) with H93Y

[3] = biological target: T2, Nonstructural protein 5A (Hepatitis C virus); test: Inhibition of wild type HCV genotype 2b NS5A assessed as reduction in viral RNA level by cell based real time PCR method; conditions: Hepatitis C virus subtype 2b
[4] = tested on: Nonstructural protein 5A (Hepatitis C virus), Q5L478 [UNDEFINED MUTATION]; test: Inhibition of HCV genotype 1a NS5A L31V mutant assessed as reduction in viral RNA level by cell based real time PCR method; conditions: Hepatitis C virus subtype 1a

| SMILES | EC90 [1] [nM] | EC90 [2] [nM] | EC90 [3] [nM] | EC90 [4] [nM] |
| --- | --- | --- | --- | --- |
| O=C([C@@H](c1ccccc1)N1CCCC1)N1CCC[C@H]1c1ncc(-c2ccc3c(c2)O[C@@H](c2ccccc2)n2c-3cc3cc(-c4cnc([C@@H]5CCCN5C(=O)[C@@H](c5ccccc5)N5CCCC5)[nH]4)ccc32)[nH]1 | > 100 | 3.9 | 13 | 3.9 |
| COC(=O)N[C@H](C(=O)N1CCC[C@H]1c1nc(-c2ccc3c(c2)O[C@@H](c2ccccc2)n2c-3cc3cc(-c4c[nH]c([C@@H]5CCCN5C(=O)[C@@H](NC(=O)OC)C(C)C)n4)ccc32)c[nH]1)C(C)C | 28 | 0.006 | 11 | 1 |
| COC(=O)N[C@H](C(=O)N1CCC[C@H]1c1ncc(-c2ccc3c(c2)O[C@@H](c2ccccc2)n2c-3cc3cc(-c4cnc([C@@H]5CCCN5C(=O)[C@@H](NC(=O)OC)C5CCC(F)(F)CC5)[nH]4)ccc32)[nH]1)C1CCC(F)(F)CC1 | 39 | 0.03 | 77 | 0.65 |
| COC(=O)NC1(C(=O)N2CCC[C@H]2c2ncc(-c3ccc4c(c3)O[C@@H](c3ccccc3)n3c-4cc4cc(-c5cnc([C@@H]6CCCN6C(=O)C6(NC(=O)OC)CCOCC6)[nH]5)ccc43)[nH]2)CCOCC1 | > 100 | 1.4 | > 100 | > 100 |
| O=C([C@H]1CCCO1)N1CCC[C@H]1c1ncc(-c2ccc3c(c2)O[C@@H](c2ccccc2)n2c-3cc3cc(-c4cnc([C@@H]5CCCN5C(=O)[C@H]5CCCO5)[nH]4)ccc32)[nH]1 | > 100 | 1 | > 100 | > 100 |
| COC(=O)N[C@@H](CC1CCOCC1)C(=O)N1CCC[C@H]1c1ncc(-c2ccc3c(c2)O[C@@H](c2ccccc2)n2c-3cc3cc(-c4cnc([C@@H]5CCCN5C(=O)[C@H](CC5CCOCC5)NC(=O)OC)[nH]4)ccc32)[nH]1 | 40 | 0.1 | 18 | 0.77 |
| COC(=O)N[C@@H](C(=O)N1CCC[C@H]1c1ncc(-c2ccc3c(c2)O[C@@H](c2ccccc2)n2c-3cc3cc(-c4cnc([C@@H]5CCCN5C(=O)[C@H](NC(=O)OC)C5CCOCC5)[nH]4)ccc32)[nH]1)C1CCOCC1 | > 100 | 8.6 | > 100 | > 100 |
| CC[C@H](NC(=O)OC)C(=O)N1CCC[C@H]1c1ncc(-c2ccc3c(c2)O[C@@H](c2ccccc2)n2c-3cc3cc(-c4cnc([C@@H]5CCCN5C(=O)[C@H](CC)NC(=O)OC)[nH]4)ccc32)[nH]1 | > 100 | 0.016 | 65 | 1.6 |
| CCN(CC)[C@@H](C(=O)N1CCC[C@H]1c1ncc(-c2ccc3c(c2)cc2n3[C@H](c3ccccc3)Oc3cc(-c4cnc([C@@H]5CCCN5C(=O)[C@@H](NC(=O)OC)C(C)C)[nH]4)ccc3-2)[nH]1)c1ccccc1 | 44 | 0.045 | 4 | – |
| COC(=O)N[C@H](C(=O)N1CCC[C@H]1c1ncc(-c2ccc3c(c2)O[C@@H](c2ccccc2)n2c-3cc3cc(-c4cnc([C@@H]5CCCN5C(=O)[C@@H](NC(=O)OC)[C@@H](C)OC)[nH]4)ccc32)[nH]1)C(C)C | 54 | 0.039 | 35 | – |
| CCN(CC)[C@@H](C(=O)N1CCC[C@H]1c1ncc(-c2ccc3c(c2)O[C@@H](c2ccccc2)n2c-3cc3cc(-c4cnc([C@@H]5CCCN5C(=O)[C@@H](c5ccccc5)N(CC)CC)[nH]4)ccc32)[nH]1)c1ccccc1 | > 100 | 0.27 | 3.1 | 0.6 |
| CC[C@H](C)[C@H](NC(=O)OC)C(=O)N1CCC[C@H]1c1ncc(-c2ccc3c(c2)O[C@@H](c2ccccc2)n2c-3cc3cc(-c4cnc([C@@H]5CCCN5C(=O)[C@@H](NC(=O)OC)[C@@H](C)CC)[nH]4)ccc32)[nH]1 | > 100 | 0.011 | > 100 | 1.8 |
| COC(=O)N[C@H](C(=O)N1CCC[C@H]1c1ncc(-c2ccc3c(c2)O[C@@H](c2ccccc2)n2c-3cc3cc(-c4cnc([C@@H]5CCCN5C(=O)[C@@H](NC(=O)OC)[C@@H](C)OC)[nH]4)ccc32)[nH]1)[C@@H](C)OC | > 100 | 0.019 | 17 | – |
